Results from ChEMBL document CHEMBL5360578, “Design, synthesis and evaluation of novel pyrrole-hydroxybutenolide hybrids as promising antiplasmodial and anti-inflammatory agents” (Eur J Med Chem, 2023).
The source made the active and inactive calls. No cut-off for these calls is given here.

Legend:
THP-1 [1] = assay: Cytotoxicity against LPS-stimulated human THP-1 cells assessed as cell viability at 10 uM incubated for 12 hrs followed by LPS treatment measured after 4 hrs by PI staining based flow cytometry; format: functional; details: time 16.0 hrs
HEK-293T = assay: Antiinflammatory activity against HEK293T cells assessed as fold increase in TNFalpha-induced NF-kappaB activity at 10 uM incubated for 1 hr followed by TNFalpha treatment for 5 hrs by luciferase based assay (reference value: 17.1); format: functional, Homo sapiens
THP-1 [2] = assay: Antiinflammatory activity against human THP-1 cells assessed as inhibition of LPS-induced TNFalpha level at 10 uM incubated for 12 to 14 hrs followed by compound replenishment for 1 hr and subsequent LPS treatment for 4 hrs by ELISA assay (reference value: 93.43 %); format: functional; design: scale not given: the % may be the effect or the level left; details: time 17-19 hrs
Plasmodium falciparum [3] = assay: Antimalarial activity against asynchronous chloroquine-sensitive Plasmodium falciparum 3D7 assessed as parasite growth inhibition infected in erythrocytes incubated for 72 hrs by SYBR green dye based assay; format: functional, organism-based; details: 3D7, 72 h
Plasmodium falciparum [4] = assay: Antimalarial activity against asynchronous chloroquine-resistant Plasmodium falciparum K1 assessed as parasite growth inhibition infected in erythrocytes incubated for 72 hrs by SYBR green dye based assay; format: functional, organism-based; details: K1, 72 h
[5] = Tmax in fasted Swiss mouse at 50 mg/kg, po measured upto 48 hrs by LC-MS/MS analysis; format: ADME, organism-based; details: in vivo
Mus musculus [6] = assay: Antiinflammatory activity in Swiss albino mouse assessed as inhibition of carrageenan-induced paw edema at 100 mg/kg,po pretreated for 1 hr followed by carrageenan administration measured after 6 hrs relative to control; format: functional; details: time 7 hrs
[7] = Clearance in fasted Swiss mouse at 50 mg/kg, po measured upto 48 hrs by LC-MS/MS analysis; format: ADME, organism-based; details: in vivo
[8] = AUC in fasted Swiss mouse at 50 mg/kg, po measured upto 48 hrs by LC-MS/MS analysis; format: ADME, organism-based; design: time < 48 hrs, dose 50 mg/kg, route po; details: in vivo
[9] = Stability in mouse plasma assessed as compound remaining at 10 uM measured upto 120 mins by LC-MS analysis; format: ADME, cell-free; details: read-out: Stability
[10] = Stability in simulated physiological fluid assessed as compound remaining at pH 7.4 measured upto 120 mins by LC-MS analysis; format: physicochemical; details: read-out: Stability
Mus musculus [11] = assay: Antiinflammatory activity in Swiss albino mouse assessed as inhibition of carrageenan-induced paw edema at 25 mg/kg,po pretreated for 1 hr followed by carrageenan administration measured after 4 hrs relative to control; format: functional; details: time 5 hrs
THP-1 [12] = assay: Downregulation of LPS-induced ERK1/2 phosphorylation in human THP-1 cells at 10 uM incubated for 60 mins followed by LPS treatment 90 mins by […]; format: functional, cell-based; details: time 150.0 min
[13] = Half life in fasted Swiss mouse at 50 mg/kg, po measured upto 48 hrs by LC-MS/MS analysis; format: ADME, organism-based; details: in vivo
[14] = Volume of distribution in fasted Swiss mouse at 50 mg/kg, po measured upto 48 hrs by LC-MS/MS analysis; format: ADME, organism-based; details: in vivo
Mus musculus [15] = assay: Antiinflammatory activity in Swiss albino mouse assessed as inhibition of carrageenan-induced paw edema at 50 mg/kg,po pretreated for 1 hr followed by carrageenan administration measured after 4 hrs relative to control; format: functional; details: time 5 hrs
Mus musculus [16] = assay: Antiinflammatory activity in Swiss albino mouse assessed as inhibition of carrageenan-induced paw edema at 50 mg/kg,po pretreated for 1 hr followed by carrageenan administration measured after 6 hrs relative to control; format: functional; details: time 7 hrs
[17] = Cmax in fasted Swiss mouse at 50 mg/kg, po measured upto 48 hrs by LC-MS/MS analysis; format: ADME, organism-based; design: time < 48 hrs, dose 50 mg/kg, route po; details: in vivo
Mus musculus [18] = assay: Antiinflammatory activity in Swiss albino mouse assessed as inhibition of carrageenan-induced paw edema at 100 mg/kg,po pretreated for 1 hr followed by carrageenan administration measured after 4 hrs relative to control; format: functional; details: time 5 hrs
[19] = Stability in simulated intestinal fluid assessed as compound remaining at pH 6.8 measured upto 120 mins by LC-MS analysis; format: ADME; details: read-out: Stability
[20] = Stability in simulated gastric fluid assessed as compound remaining at pH 1.2 measured upto 120 mins by LC-MS analysis; format: ADME; details: read-out: Stability
[21] = MRT in fasted Swiss mouse at 50 mg/kg, po measured upto 48 hrs by LC-MS/MS analysis; format: ADME, organism-based; details: in vivo
Mus musculus [22] = assay: Antiinflammatory activity in Swiss albino mouse assessed as inhibition of carrageenan-induced paw edema at 25 mg/kg,po pretreated for 1 hr followed by carrageenan administration measured after 6 hrs relative to control; format: functional; details: time 7 hrs
THP-1 [23] = assay: Downregulation of LPS-induced JNK1/2 phosphorylation in human THP-1 cells at 10 uM incubated for 60 mins followed by LPS treatment 90 mins by […]; format: functional, cell-based; details: time 150.0 min
[24] = Cytotoxicity against African green monkey Vero cells incubated for 3 days by fluorescence based assay; format: toxicity, cell-based; details: chlorocebus sabaeus, time 3 day
[25] = Toxicity in Swiss mouse infected with chloroquine-resistant Plasmodium yoelii N67 assessed as mean survival time at 100 mg/kg/day, po for 4 days (reference value: 7.2 +/- 1.3 day); format: organism-based; details: in vivo, 96 h, time 4 day
Plasmodium yoelii [26] = assay: Antimalarial activity against chloroquine-resistant Plasmodium yoelii N67 infected in Swiss mouse assessed as parasite growth suppression at 100 mg/kg/day, po for 4 days measured on day 4 relative to control; format: functional; details: time 4 day
Plasmodium yoelii [27] = assay: Antimalarial activity against chloroquine-resistant Plasmodium yoelii N67 infected in Swiss mouse assessed as parasite growth suppression at 100 mg/kg/day, po for 4 days measured on day 7 relative to control; format: functional; details: time 7 day

| Structure (SMILES) | Activity (THP-1 [1]) | fold change (FC) (HEK-293T) | Activity (THP-1 [2]) [%] | IC50 (Plasmodium falciparum [3]) [µM] | IC50 (Plasmodium falciparum [4]) [µM] | further results |
| --- | --- | --- | --- | --- | --- | --- |
| CCc1ccc(-c2c(-c3ccccc3)c(C(=O)Nc3ccccc3)c(C)n2CC2=CC(=O)OC2O)cc1 (centres undefined) | Active | 7 | 89.97 | 1.21 | – | – |
| CC(C)c1c(C(=O)Nc2ccccc2)c(-c2ccccc2)c(-c2ccc(F)cc2)n1CC[C@@H](O)C[C@@H](O)CC(=O)O [ATORVASTATIN] | – | – | – | 4.6 | > 5 | – |
| O=C1C=C(O)CO1 | – | – | – | 4.88 | > 5 | – |
| Cc1c(C(=O)Nc2ccccc2)c(-c2ccccc2)c(-c2ccc(F)cc2)n1CC1=CC(=O)OC1O (centres undefined) | Active | 10.3 | 83.11 | 2.66 | – | – |
| Cc1c(C(=O)Nc2ccccc2)c(-c2ccc(F)cc2)c(-c2ccc(F)cc2)n1CCC1=CC(=O)OC1O (centres undefined) | Active | 9.7 | 12.55 | > 5 | – | – |
| Cc1c(C(=O)Nc2ccccc2)c(-c2ccc(Cl)cc2)c(-c2ccc(Cl)cc2)n1CCC1=CC(=O)OC1O (centres undefined) | Active | 9.9 | 92.36 | 1.47 | – | Tmax [5]: 15 min; inhibition in vivo at 100 mg/kg (Mus musculus [6]): 65%; CL/F [7]: 589 L/h/kg; AUC at 48 h [8]: 86.9 ng·h/mL; remaining at 2 h, 10 µM [9]: 86.5%; remaining at 2 h [10]: 87.9%; inhibition in vivo at 25 mg/kg (Mus musculus [11]): 61%; Activity (THP-1 [12]): Active; half-life [13]: 52.2 min; Vd [14]: 754.5 L/kg; inhibition in vivo at 50 mg/kg (Mus musculus [15]): 62%; inhibition in vivo at 50 mg/kg (Mus musculus [16]): 56%; Cmax [17]: 110 ng/mL; inhibition in vivo at 100 mg/kg (Mus musculus [18]): 73%; remaining at 2 h [19]: 84.4%; remaining at 2 h [20]: 89.5%; MRT [21]: 61.2 min; inhibition in vivo at 25 mg/kg (Mus musculus [22]): 56%; Activity (THP-1 [23]): Active |
| COc1ccc(-c2c(-c3ccccc3)c(C(=O)Nc3ccccc3)c(C)n2CCC2=CC(=O)OC2O)cc1 (centres undefined) | – | – | – | > 5 | – | – |
| O=C1OC(O)C(Cl)=C1Cl (centres undefined) [MUCOCHLORIC ACID] | – | – | – | 4 | > 5 | – |
| Cc1ccc(-c2c(-c3ccccc3)c(C(=O)Nc3ccccc3)c(C)n2CC2=CC(=O)OC2O)cc1 (centres undefined) | Active | 12.5 | 84 | 1.31 | – | – |
| Cc1c(C(=O)Nc2ccccc2)c(-c2ccccc2)c(-c2ccccc2)n1CCC1=CC(=O)OC1O (centres undefined) | Active | 10.3 | 13.5 | 2.83 | – | – |
| Cc1c(C(=O)Nc2ccccc2)c(-c2ccccc2)c(-c2ccc(C(C)C)cc2)n1C | – | – | – | 2.94 | 4.34 | – |
| Cc1ccc(-c2c(-c3ccccc3)c(C(=O)Nc3ccccc3)c(C)n2CCC2=CC(=O)OC2O)cc1 (centres undefined) | Active | 13.1 | 46.46 | 0.6 | 3.92 | CC50 at 72 h [24]: > 200 µM; MST [25]: 14.6 days; Activity (Plasmodium yoelii [26]): 34.6%; Activity (Plasmodium yoelii [27]): 80.68% |
| CCN(CC)CCCC(C)Nc1ccnc2cc(Cl)ccc12 (centres undefined) [CHLOROQUINE] | – | – | – | – | – | CC50 at 72 h [24]: 187 µM |
| CC1=CCC[C@@H]2[C@@](C)(CCC3=CC(=O)O[C@@H]3O)[C@H](C)CC[C@@]12C | – | – | – | 1.27 | 2.88 | – |
